These results are taken from patent US20150352040A1 (priority 2010, published 2015).

Read-outs that look alike come from different tables or passages of the source.

For series [1] the following is noted: in comparison to a 15 mg dose of hydrocodone. The text has this: In certain preferred embodiments, the opioid agonist is hydrocodone.
Series [2] concerns human patients. Kind of series: Efficacy of topical opioid analgesic formulations in human patients (Example 6). The class given is in vivo. The text has this: The efficacy of topical opioid analgesic formulations was studied in human patients.
For series [3] the following is noted: compounded morphine in cold cream applied locally to skin at areas of pain; cited from earlier work.
Series [4] can be described thus: TRNA therapy with topical apomorphine, onset of clinical effect. The class given is in vivo, human.
Series [5] has as its system human patients.
The test system of series [6] is patients. Kind of series: Compounded topical morphine sulfate and tramadol, inventor's clinical experience (nuchal and peripheral application). The following applies: patients tapering off oral narcotics, nuchal delivery as only pain therapy.
Protocol: The dose for MS has been 2.5-5.0 mg and for tramadol, 40-80 mg, divided over two to three locations, as described herein.
With activation of opioid receptors potentially providing improved pain relief, MS and tramadol were compounded for topical administration.
Another series concerns patient. The following applies: 1 mg twice daily.
The conditions of series [7]: cited from earlier work.
For series [8] the following is noted: milligram-for-milligram basis; cited from earlier work.
The test system of series [9] is patients. As to conditions: cited from earlier work.
Where [10] appears, read: case 4, acute lumbar sprain, 1.0 mg application.
The mark [11] stands for this setting: Patient C, 40 mg topical divided between knee and lower back.
Setting [12] is: Patient E, 40 mg topical to neck and back in divided dose.
Setting [13] is: Patient F, 40 mg topical to nuchal region and lower back in divided doses.
The mark [14] stands for this setting: Patient H, 40 mg topical in 1 ml Lipoderm.

Take `CN1CC[C@]23CCCC[C@H]2[C@H]1Cc1ccc(O)cc13` [Levorphanol]: the “Calculated Dose (mg), equianalgesic” value in series [1] is 1.8 mg.
With `CCC(=O)C(CC(C)N(C)C)(c1ccccc1)c1ccccc1` (stereo not drawn) [Methadone], the “Calculated Dose (mg), equianalgesic” value in series [1] was 9.0 mg.
With `CN1CC[C@]23c4c5ccc(O)c4O[C@H]2[C@@H](O)C=C[C@H]3[C@H]1C5` [morphine], the additional pain relief in the series on human patients [2] (Patient D, topical 2.5 mg in 0.5 ml Pass-gel, despite regular hydromorphone) is recorded as 20-30%. For the same compound, the “morphine levels in blood or urine” value in series [3] is reported as “not detected”.
As to `CN1CCc2cccc3c2[C@H]1Cc1ccc(O)c(O)c1-3` [apomorphine], the “onset of clinical effect” value in [4] is 10 to 15 min. Moreover, the “time to pain relief, all patients” value in the series on human patients [5] (Example 3, cream of Example 1 over nerve entrapment areas or affected muscle) was in the range of 5 to 10 min. Further, the “outcome, carpal tunnel syndrome” value in the series on human patients [5] (case 1, pregnant person, 0.5 mg at the wrist) is listed as “without recurrent symptoms”. Besides, the pain relief result in the series on human patients [5] (case 2, additional 0.5 mg after 24 hours) is “complete pain relief”. For the same compound, in the series on human patients [5] (case 2, tarsal tunnel syndrome/plantar fasciitis, runner, 0.5 mg application), the pain relief was 90%. Also, the “outcome, pain” value in the series with human patients [5] (case 3, hamstring injury, 0.5 mg) is “complete resolution of pain without recurrence”. In addition, in the series on human patients [5] (case 3, hamstring injury, 0.5 mg to muscle and insertion site), the “time to resolution of pain” value lay in the range of 5 to 10 min. Besides, the “pain and spasm relief” value with human patients [5] (case 4 (person one), acute lumbar sprain, 1.0 mg application) is given as 80-90%. In the series with human patients [5] (setting [10]), the duration of relief result is reported as “lasted overnight”; the “time to pain and spasm relief” value is 10 to 15 min. Also, the “outcome, acute lumbar sprain from lifting” value with human patients [5] (case 5, 0.5 mg application and heating pad) is reported as “without recurrent symptoms”. Besides, the “outcome, foot pain from stress fractures and tarsal tunnel” value in the series on human patients [5] (case 6, marathon runner, 0.5 mg to base of toe and 0.5 to tarsal tunnel) is reported as “experienced pain relief”. Also, the “tolerability of increased single dose” value in the series with human patients [5] (single topical dose increased to 2 mg, peripheral application) is “without deleterious effects”.
Regarding `CN1CC[C@]23c4c5ccc(O)c4O[C@H]2[C@@H](O)C=C[C@H]3[C@H]1C5.O=S(=O)(O)O` [morphine sulfate], the “further reduction in pain from baseline” value in the series with human patients [2] (Patient G, 3 mg topical in Pass-gel to the nuchal region, on oral oxycodone) is listed as 20-30%. Also, the “reduction in baseline back and hip pain” value in the series with human patients [2] (Patient I, topical 2.5 mg in 0.5 ml Pass-gel, despite regular narcotics) is listed as 15-20%. Further, the “time to reduction in pain” value was in the range of 10 to 15 min in the series with human patients [2] (Patient K, topical 2.5 mg to the nuchal region) and 8 to 10 min in the series with human patients [2] (Patient L, topical 2.5 mg to the nuchal region). Moreover, the “headache and neck pain after treatment” value in the series on human patients [2] (Patient K, topical 2.5 mg to the nuchal region, from "severe") is 0-1 of 10. Also, the pain after treatment result in the series on human patients [2] (Patient L, topical 2.5 mg to the nuchal region, from about 8 of 10) was “about 4 of 10”. In the series on patients [6], the narcotic withdrawal symptoms result is listed as “no significant narcotic withdrawal symptoms”.
Turning to `Clc1ccc2nsnc2c1NC1=NCCN1` [tizanidine], the “state of spastic upper extremity” value is “essentially back to normal” with patient (after a few months of continued therapy) and “visible improvement” in the series with patient (within several weeks). In series [7], the “absorption after oral administration” value was “completely absorbed”.
`CC(=O)Oc1ccc2c3c1O[C@H]1[C@@H](OC(C)=O)C=C[C@H]4[C@@H](C2)N(C)CC[C@@]341` [Heroin, diacetylmorphine]: in series [8], the “potency relative to morphine” value is 1.5-2 times.
Consider `COc1ccc2c3c1O[C@H]1C(=O)CC[C@@]4(O)[C@@H](C2)N(C)CC[C@]314` [Oxycodone], for which the “Calculated Dose (mg), equianalgesic” value in series [1] is listed as 13.5 mg.
Regarding `COc1ccc2c3c1O[C@H]1C(=O)CC[C@H]4[C@@H](C2)N(C)CC[C@]314` [Hydrocodone], the “Calculated Dose (mg), equianalgesic” value in [1] is given as 15.0 mg.
For the compound `COc1cccc(C2(O)CCCCC2CN(C)C)c1` (stereo not drawn) [tramadol], the pain relief entry with human patients [2] (Patient A, topical in Lipoderm, 40 mg tramadol hydrochloride dose twice daily, nuchal region and back) is “Pain relief is achieved”. In addition, the “pain in the neck after treatment” value in the series on human patients [2] (Patient B, 15 minutes after 20 mg topical to nuchal region and lower back, baseline about 7-8/10) is recorded as “about 0 /10”. Also, in the series on human patients [2] (Patient B, 15 minutes after 20 mg topical to nuchal region and lower back, baseline about 7/10), the “pain in the back and legs after treatment” value is on record as “about 2 /10”. Further, the “benefit of oral tablets in the past” value with human patients [2] (Patient B, tramadol (Ultram) tablets) was “without significant benefit”. In the series with human patients [2] (setting [11]), the eventual pain relief is 80-90% and the “time to initial reduction in pain” value was at most 15 min. Besides, in the series on human patients [2] (Patient C, right knee pain, 40 mg topical divided between knee (popliteal fossa) and lower back), the “initial reduction in pain” value is reported as about 50%. Further, in the series on human patients [2] (Patient D, 40 mg topical at the nuchal region), the outcome is on record as “with benefit”. Besides, in the series on human patients [2] (setting [12]), the reduction in pain is on record as 70-80% and the “time to reduction in pain” value was 10 to 15 min. Besides, in the series with human patients [2] (setting [13]), the pain relief is at least 70% and the “time to pain relief” value was at most 15 min. For the same compound, in the series with human patients [2] (setting [14]), the “duration of pain relief” value was about 48 h and the “time to pain relief” value is at most 15 min. Besides, in the series with human patients [2] (Patient H, 40 mg topical in 1 ml Lipoderm to neck and back in divided doses), the pain relief result is “greater than 80%”. Further, the “outcome, pain (trigeminal neuralgia and cervical sprain)” value in the series on human patients [2] (Patient J, topical 40 mg in 1 ml Lipoderm to the nuchal region) was “dramatic improvement in pain”. For the same compound, in the series with patients [9] (in most cases), the “onset of withdrawal after the last dose” value is 12 to 20 h. The “duration of acute withdrawal symptoms” value in the series on patients [9] (versus three or four days for other codeine analogues) is “seven days or more”. The narcotic withdrawal symptoms result in the series with patients [6] is given as “no significant narcotic withdrawal symptoms”.
Take `COc1ccc2c3c1O[C@H]1[C@@H](O)C=C[C@H]4[C@@H](C2)N(C)CC[C@@]341` [Codeine]: the “Calculated Dose (mg), equianalgesic” value in series [1] is recorded as 90.0 mg.
On the same count and under the same terms, next, Meperidine: 135.0 mg.
